ChEMBL document CHEMBL1201862, “PubChem BioAssay data set” (2004)
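Step 1: Grow cells in 96-well plates. Step 2: Expose to compound for 48 hours at 5 concentrations. Step 3: Interpolate endpoints linearly; if unreached, use highest concentration. Abbreviation: GI50, concentration required for 50% inhibition of growth.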 Activity calls are given as the source filed them. No stated cut-off is given here; in the data, active = GI50 up to about 1.1 µM and inactive = higher.

Legend:
Assay in all cases: NCI-60 cell line screen, 48 h
CCRF-CEM = test system: CCRF-CEM
COLO 205 = test system: COLO 205
HCT-15 = test system: HCT-15
HL-60 = test system: HL-60
HOP-62 = test system: HOP-62
IGROV-1 = test system: IGROV-1
KM12 = test system: KM12
LOX IMVI = test system: LOX IMVI
Malme-3M = test system: Malme-3M
OVCAR-3 = test system: OVCAR-3
RXF 393 = test system: RXF 393
SF-268 = test system: SF-268
SK-MEL-5 = test system: SK-MEL-5
SN12C = test system: SN12C
U-251 = test system: U-251
UO-31 = test system: UO-31
A498 = test system: A498

Structure (SMILES) | GI50 (CCRF-CEM) | GI50 (COLO 205) | GI50 (HCT-15) [µM] | GI50 (HL-60) | GI50 (HOP-62) | GI50 (IGROV-1) | GI50 (KM12) | GI50 (LOX IMVI) | GI50 (Malme-3M) | GI50 (OVCAR-3) | GI50 (RXF 393) | GI50 (SF-268) | GI50 (SK-MEL-5) | GI50 (SN12C) | GI50 (U-251) | GI50 (UO-31) | GI50 (A498)
CCOC(=O)/C(C(=O)c1ccccc1)=C1\N[C@H](C(=O)OCC)CS1 | > 100 µM (inactive) | > 100 µM (inactive) | > 100 | > 100 µM (inactive) | > 100 µM (inactive) | > 100 µM (inactive) | > 100 µM (inactive) | > 100 µM (inactive) | > 100 µM (inactive) | > 100 µM (inactive) | > 100 µM (inactive) | > 100 µM (inactive) | 92.3 µM (inactive) | > 100 µM (inactive) | > 100 µM (inactive) | > 100 µM (inactive) | –
CC1=C(C(=O)O)N2C(=O)[C@@H](NC(=O)C(c3ccccc3)N3CSC(=S)N(C(C)C)C3)C2SC1 (stereo partly drawn) | > 100 µM (inactive) | 86.3 µM (inactive) | > 100 | > 100 µM (inactive) | > 100 µM (inactive) | > 100 µM (inactive) | > 100 µM (inactive) | > 100 µM (inactive) | > 100 µM (inactive) | > 100 µM (inactive) | – | – | > 100 µM (inactive) | > 100 µM (inactive) | > 100 µM (inactive) | > 100 µM (inactive) | > 100 µM (inactive)
O=C1c2ccccc2OP(=O)(OCC(F)(F)F)OC1(C(F)(F)F)C(F)(F)F (stereo not drawn) | > 100 µM (inactive) | > 100 µM (inactive) | > 100 | > 100 µM (inactive) | > 100 µM (inactive) | > 100 µM (inactive) | > 100 µM (inactive) | > 100 µM (inactive) | – | – | > 100 µM (inactive) | > 100 µM (inactive) | > 100 µM (inactive) | > 100 µM (inactive) | > 100 µM (inactive) | 45.3 µM (inactive) | > 100 µM (inactive)
COc1ccc(/C=N\N2C(=O)Cc3ccccc32)cc1 | > 100 µM (inactive) | > 100 µM (inactive) | > 100 | > 100 µM (inactive) | 64.1 µM (inactive) | > 100 µM (inactive) | > 100 µM (inactive) | > 100 µM (inactive) | > 100 µM (inactive) | > 100 µM (inactive) | – | 74.3 µM (inactive) | > 100 µM (inactive) | – | 48.4 µM (inactive) | 39.3 µM (inactive) | > 100 µM (inactive)
NC(=S)N/N=C(\C(=O)Nc1ccc(Cl)c(Cl)c1)C1=NN(c2ccccc2)C(c2cccc([N+](=O)[O-])c2)CC1=O (stereo not drawn) | 17.2 µM (inactive) | 19 µM (inactive) | 30.8 | 33.7 µM (inactive) | 34.6 µM (inactive) | 27 µM (inactive) | 85.9 µM (inactive) | 16.3 µM (inactive) | > 100 µM (inactive) | 20.6 µM (inactive) | – | 38.5 µM (inactive) | > 100 µM (inactive) | 16.8 µM (inactive) | 4.31 µM (inactive) | 30.3 µM (inactive) | > 100 µM (inactive)
O=C(/C=C/c1ccc(-c2ccccc2)cc1)c1ccccc1 | 90.4 µM (inactive) | 22.3 µM (inactive) | 17.7 | 39.6 µM (inactive) | – | 26.7 µM (inactive) | 17.9 µM (inactive) | 15.7 µM (inactive) | 41.9 µM (inactive) | – | – | 24.8 µM (inactive) | 19.7 µM (inactive) | 30.4 µM (inactive) | 22.9 µM (inactive) | 35 µM (inactive) | 20 µM (inactive)
CC(C)(C)C1=Cc2cc3cc(C(C)(C)C)[nH]c(=O)c3cc2S(=O)(=O)N1 | 26.6 µM (inactive) | 21.5 µM (inactive) | – | 21.2 µM (inactive) | 22.3 µM (inactive) | – | 30.6 µM (inactive) | – | 22.4 µM (inactive) | 19 µM (inactive) | – | 26.1 µM (inactive) | – | 42.7 µM (inactive) | 18 µM (inactive) | 17.1 µM (inactive) | 53.2 µM (inactive)
